Data as given in PubChem BioAssay AID248 (DTP/NCI, 2004).
“And” between values parts separate entries of the source, which are not always exact repeats. Equal entries are not always repeated. Toxic doses and inconclusive results are not listed. Cut-off read from the data, not from the text of the source: active = T/C of 150% or more; inactive = T/C below 125%.

Test system: L1210 leukemia ip in BDF1 mice, survival T/C
Assay: NCI In Vivo Anticancer Drug Screen. Data for tumor model L1210 Leukemia (intraperitoneal) in B6D2F1 (BDF1) mice
Details: endpoint: mean survival time, higher = longer survival
Procedure, shortened: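 In this screen, tumor-bearing mice given compound are compared to those given vehicle, and their survival values are reported as a treated-to-control quotient.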

[1] = dose: 100.0 mg/kg/injection, schedule: Q01DX009 (ip), vehicle: Klucel (hydroxypropylcellulose) (HPC)
[2] = dose: 100.0 mg/kg/injection, schedule: Q04DX002 (ip), vehicle: Klucel (hydroxypropylcellulose) (HPC)
[3] = dose: 200.0 mg/kg/injection, schedule: Q01DX009 (ip), vehicle: Klucel (hydroxypropylcellulose) (HPC)
[4] = dose: 200.0 mg/kg/injection, schedule: Q04DX002 (ip), vehicle: Klucel (hydroxypropylcellulose) (HPC)
[5] = dose: 400.0 mg/kg/injection, schedule: Q01DX009 (ip), vehicle: Klucel (hydroxypropylcellulose) (HPC)
[6] = dose: 400.0 mg/kg/injection, schedule: Q04DX002 (ip), vehicle: Klucel (hydroxypropylcellulose) (HPC)
[7] = dose: 50.0 mg/kg/injection, schedule: Q01DX009 (ip), vehicle: Klucel (hydroxypropylcellulose) (HPC)
[8] = dose: 100.0 mg/kg/injection, schedule: Q01DX009 (ip), vehicle: saline
[9] = dose: 200.0 mg/kg/injection, schedule: Q01DX009 (ip), vehicle: saline
[10] = dose: 100.0 mg/kg/injection, schedule: Q04DX003 (ip), vehicle: Klucel (hydroxypropylcellulose) (HPC)
[11] = dose: 200.0 mg/kg/injection, schedule: Q04DX003 (ip), vehicle: Klucel (hydroxypropylcellulose) (HPC)
[12] = dose: 100.0 mg/kg/injection, schedule: Q04DX003 (ip), vehicle: saline
[13] = dose: 200.0 mg/kg/injection, schedule: Q04DX003 (ip), vehicle: saline
[14] = dose: 400.0 mg/kg/injection, schedule: Q04DX003 (ip), vehicle: saline
[15] = dose: 100.0 mg/kg/injection, schedule: Q01DX001 (ip), vehicle: saline
[16] = dose: 200.0 mg/kg/injection, schedule: Q01DX001 (ip), vehicle: saline
[17] = dose: 400.0 mg/kg/injection, schedule: Q01DX001 (ip), vehicle: saline
[18] = dose: 100.0 mg/kg/injection, schedule: Q01DX001 (ip), vehicle: carboxymethylcellulose (CMC)
[19] = dose: 100.0 mg/kg/injection, schedule: Q04DX002 (ip), vehicle: saline
[20] = dose: 200.0 mg/kg/injection, schedule: Q01DX001 (ip), vehicle: carboxymethylcellulose (CMC)
[21] = dose: 200.0 mg/kg/injection, schedule: Q04DX002 (ip), vehicle: saline
[22] = dose: 400.0 mg/kg/injection, schedule: Q04DX002 (ip), vehicle: saline

Measured: T/C

C/C(=N\N=C(/C)c1cccc([N+](=O)[O-])c1)c1cccc([N+](=O)[O-])c1
inactive: dose: 100.0 mg/kg/injection, schedule: Q01DX001 (ip), vehicle: other 100 % of control | dose: 200.0 mg/kg/injection, schedule: Q01DX001 (ip), vehicle: other 100 % of control | dose: 400.0 mg/kg/injection, schedule: Q01DX001 (ip), vehicle: other 97 % of control

Cc1ccc(C)n1CCn1c(C)ccc1C
inactive: [1] 91 % of control | [2] 88 % of control | [3] 94 % of control | [4] 93 % of control | [5] 91 % of control | [6] 96 % of control

COc1cc(C(=O)Cl)cc(OC)c1OC
inactive: dose: 18.75 mg/kg/injection, schedule: Q04DX003 (ip), vehicle: saline with Tween-80 107 % of control | dose: 37.5 mg/kg/injection, schedule: Q04DX003 (ip), vehicle: saline with Tween-80 102 % of control | dose: 75.0 mg/kg/injection, schedule: Q04DX003 (ip), vehicle: saline with Tween-80 95 % of control

Cn1c(=O)c(CC(C(=O)O)C(=O)O)nc2ccccc21
inactive: [7] 93 % of control | [1] 93 % of control | [3] 100 % of control

CCOC(=O)/C=C(\C)N1CCCCC1
inactive: [8] 104 % of control | [9] 100 % of control

CCCCCCCCCCCCCCCCCCNC(=O)Nc1ccccc1
inactive: dose: 100.0 mg/kg/injection, schedule: Q01DX009 (ip), vehicle: other 101 % of control | dose: 200.0 mg/kg/injection, schedule: Q01DX009 (ip), vehicle: other 100 % of control | dose: 400.0 mg/kg/injection, schedule: Q01DX009 (ip), vehicle: other 97 % of control

c1ccc(P(CN(CCN(CP(c2ccccc2)c2ccccc2)CP(c2ccccc2)c2ccccc2)CP(c2ccccc2)c2ccccc2)c2ccccc2)cc1
inactive: dose: 100.0 mg/kg/injection, schedule: Q04DX002 (sc), vehicle: olive oil, sesame oil, peanut oil 100 % of control | dose: 200.0 mg/kg/injection, schedule: Q04DX002 (sc), vehicle: olive oil, sesame oil, peanut oil 110 % of control | dose: 400.0 mg/kg/injection, schedule: Q04DX002 (sc), vehicle: olive oil, sesame oil, peanut oil 107 % of control

O=C(NCCCl)NNC(=O)c1ccccc1
inactive: [10] 117 % of control | [11] 112 % of control

CC(N)=O.CC(N)=O.Nc1ccnc(=O)[nH]1.[Cl][Pt]
inactive: [8] 110 % of control | [12] 114 % of control | [9] 114 % of control | [13] 116 % of control | dose: 400.0 mg/kg/injection, schedule: Q01DX009 (ip), vehicle: saline 101 % of control | [14] 119 % of control

CCN(CC)C(=O)Nc1ccccc1F
inactive: [1] 104 % of control | [3] 98 % of control | [5] 119 % of control

CCN(CC)C(=O)c1ccc([N+](=O)[O-])cc1
inactive: [7] 97 % of control | [1] 97 % of control | [10] 92 % of control | [3] 95 % of control | [11] 100 % of control

CCCCCCCCSCCC(=O)O
inactive: dose: 100.0 mg/kg/injection, schedule: Q01DX009 (ip), vehicle: saline with Tween-80 97 % of control | dose: 100.0 mg/kg/injection, schedule: Q04DX003 (ip), vehicle: saline with Tween-80 97 % of control | dose: 200.0 mg/kg/injection, schedule: Q01DX009 (ip), vehicle: saline with Tween-80 88 % of control | dose: 200.0 mg/kg/injection, schedule: Q04DX003 (ip), vehicle: saline with Tween-80 92 % of control | dose: 400.0 mg/kg/injection, schedule: Q04DX003 (ip), vehicle: saline with Tween-80 94 % of control

CC1(C)SC2C(NC(=O)Cc3ccccc3)C(=O)N2C1C(=O)O (centres undefined)
inactive: dose: 50.0 mg/kg/injection, schedule: Q01DX001 (ip), vehicle: saline 104 % of control | [15] 98 % of control and 107 % of control | [12] 101 % of control | [16] 96 % of control and 107 % of control | [13] 104 % of control | [17] 98 % of control | [14] 104 % of control

O=C(O)c1cc([N+](=O)[O-])ccc1O
inactive: [18] 95 % of control | [19] 101 % of control | [20] 95 % of control | [21] 101 % of control | [22] 101 % of control

CC(=O)C(c1ccccc1)N(C)C(=O)c1ccccc1 (centres undefined)
inactive: dose: 100.0 mg/kg/injection, schedule: Q04DX003 (ip), vehicle: acetone 93 % of control | dose: 200.0 mg/kg/injection, schedule: Q04DX003 (ip), vehicle: acetone 86 % of control | dose: 400.0 mg/kg/injection, schedule: Q04DX003 (ip), vehicle: acetone 89 % of control

COC(=O)CCNc1ccccc1-c1ccccc1
inactive: [19] 95 % of control | [21] 114 % of control | [22] 103 % of control

COC(=O)CCCCn1ccc(=O)[nH]c1=O
inactive: [2] 100 % of control | [4] 104 % of control | [6] 100 % of control

CC(C)c1cc(CN(C)C)cc(C(C)C)c1O
inactive: [10] 95 % of control | [11] 102 % of control

COC(=O)c1cccc([N+](=O)[O-])c1
inactive: [15] 96 % of control | [16] 94 % of control | [17] 100 % of control

CCOC(=O)/C(C#N)=C\c1cc(O)c(O)c(OC)c1
inactive: dose: 50.0 mg/kg/injection, schedule: Q01DX001 (ip), vehicle: carboxymethylcellulose (CMC) 100 % of control | [18] 92 % of control | [20] 97 % of control | dose: 400.0 mg/kg/injection, schedule: Q01DX001 (ip), vehicle: carboxymethylcellulose (CMC) 103 % of control
